Results taken from patent US6737383B1, “Herbicidal oxadiazolidines” (priority 1999, dated 2004).

Assays:
[1] = test system: bedstraw; experiment: Test B pre/postemergence bedstraw; type: in vivo, Galium aparine; conditions: for Bedstraw plant response rating: Rate 500 g/ha, scale of 0 to 10 where 0 is no effect and 10 is complete control
Outline: (§1)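 Test chemicals in a non-phytotoxic solvent mixture with surfactant were sprayed preemergence onto planted seeds and postemergence onto plants 2 to 18 cm tall (1- to 4-leaf stage). After twelve to sixteen days in a greenhouse, injury was visually rated against untreated controls from 0 (no effect) to 10 (complete control).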

[2] = test system: blackgrass; experiment: Test B pre/postemergence blackgrass; type: in vivo, Alopecurus myosuroides; conditions: for Blackgrass plant response rating: scale of 0 to 10 where 0 is no effect and 10 is complete control
Outline: as §1

[3] = test system: surinam grass; experiment: Test B pre/postemergence surinam grass; type: in vivo, Brachiaria decumbens; conditions: for B. signalgrass plant response rating: scale of 0 to 10 where 0 is no effect and 10 is complete control
Outline: as §1

[4] = test system: cocklebur; experiment: Test B pre/postemergence cocklebur; type: in vivo, Xanthium strumarium; conditions: for Cocklebur plant response rating: scale of 0 to 10 where 0 is no effect and 10 is complete control
Outline: as §1

[5] = test system: corn; experiment: Test B pre/postemergence corn; type: in vivo, Zea mays; conditions: for Corn plant response rating: scale of 0 to 10 where 0 is no effect and 10 is complete control
Outline: as §1

[6] = test system: crabgrass; experiment: Test B pre/postemergence crabgrass; type: in vivo, Digitaria sanguinalis; conditions: for Crabgrass plant response rating: scale of 0 to 10 where 0 is no effect and 10 is complete control
Outline: as §1

[7] = test system: giant foxtail; experiment: Test B pre/postemergence giant foxtail; type: in vivo, Setaria faberii; conditions: for Giant foxtail plant response rating: scale of 0 to 10 where 0 is no effect and 10 is complete control
Outline: as §1

[8] = test system: morningglory; experiment: Test B pre/postemergence morningglory; type: in vivo, Ipomoea hederacea; conditions: for Morningglory plant response rating: scale of 0 to 10 where 0 is no effect and 10 is complete control
Outline: as §1

[9] = test system: pigweed; experiment: Test B pre/postemergence pigweed; type: in vivo, Amaranthus retroflexus; conditions: for Redroot pigweed plant response rating: scale of 0 to 10 where 0 is no effect and 10 is complete control
Outline: as §1

[10] = test system: rape; experiment: Test B pre/postemergence rape; type: in vivo, Brassica napus; conditions: for Rape plant response rating: scale of 0 to 10 where 0 is no effect and 10 is complete control
Outline: as §1

[11] = test system: soybean; experiment: Test B pre/postemergence soybean; type: in vivo, Glycine max; conditions: for Soybean plant response rating: scale of 0 to 10 where 0 is no effect and 10 is complete control
Outline: as §1

[12] = test system: sugar beet; experiment: Test B pre/postemergence sugar beet; type: in vivo, Beta vulgaris; conditions: for Sugarbeets plant response rating: scale of 0 to 10 where 0 is no effect and 10 is complete control
Outline: as §1

[13] = test system: velvetleaf; experiment: Test B pre/postemergence velvetleaf; type: in vivo, Abutilon theophrasti; conditions: for Velvetleaf plant response rating: scale of 0 to 10 where 0 is no effect and 10 is complete control
Outline: as §1

[14] = test system: wheat; experiment: Test B pre/postemergence wheat; type: in vivo, Triticum aestivum; conditions: for Wheat plant response rating: scale of 0 to 10 where 0 is no effect and 10 is complete control
Outline: as §1

[15] = test system: wild oat; experiment: Test B pre/postemergence wild oat; type: in vivo, Avena fatua; conditions: for Wild oats plant response rating: scale of 0 to 10 where 0 is no effect and 10 is complete control
Outline: as §1

[16] = test system: purple nutsedge; experiment: Test B pre/postemergence purple nutsedge; type: in vivo, Cyperus rotundus; conditions: for Nutsedge plant response rating: scale of 0 to 10 where 0 is no effect and 10 is complete control
Outline: as §1

[17] = test system: smallflower flatsedge; experiment: Test B flood test smallflower flatsedge; type: in vivo, Cyperus difformis
Experimental: (§2) At the same time, these crop and weed species were also treated with postemergence applications of test chemicals formulated in the same manner. Plants ranged in height from 2 to 18 cm (1- to 4-leaf stage) for postemergence treatments. Plant species in the flood test consisted of rice (Oryza sativa), smallflower flatsedge (Cyperus difformis), duck salad (Heteranthera limosa) and bamyardgrass (Echinochloa crus-galli) grown to the 2-leaf stage for testing. Treated plants and controls were maintained in a greenhouse for twelve to sixteen days, after which all species were compared to controls and visually evaluated. Plant response ratings, summarized in Table B, are based on a scale of 0 to 10 where 0 is no effect and 10 is complete control. A dash (−) response means no test result.

[18] = test system: duck salad; experiment: Test B flood test duck salad; type: in vivo, Heteranthera limosa
Experimental: as §2

[19] = test system: bamyardgrass; experiment: Test B flood test barnyardgrass; type: in vivo, Echinochloa crus-galli
Experimental: as §2

[20] = Postemergence, Rate 250 g/ha, scale 0 to 10, 0 is no effect, 10 is complete control
[21] = Postemergence, Rate 125 g/ha, scale 0 to 10, 0 is no effect, 10 is complete control
[22] = Preemergence, Rate 62 g/ha, scale 0 to 10 (0 no effect, 10 complete control)
[23] = Rate 62 g/ha, flood test species, Pre-emergence, visual evaluation after twelve to sixteen days
[24] = Rate 125 g/ha, under heading Pre-emergence, flood test species, visual evaluation after twelve to sixteen days
[25] = Rate 250 g/ha, Pre-emergence, flood-test species, scale 0 to 10, 0 is no effect, 10 is complete control
[26] = Rate 500 g/ha, Pre-emergence, flood test species, scale 0 to 10 (0 no effect, 10 complete control)

CCCCCCn1c(=O)on(C(=O)N(c2ccc(F)cc2)C(C)C)c1=O [Compound 389]
Plant response rating, Bedstraw [1, 20]: 5 | Bedstraw plant response rating ([1]; Postemergence): 7 | Bedstraw plant response rating ([1]; Preemergence): 10 | Plant response rating, Blackgrass [2, 21]: 0 | Plant response rating, Blackgrass [2, 20]: 6 | Blackgrass plant response rating ([2]; Postemergence, Rate 500 g/ha): 6 | Plant response rating, Blackgrass [2, 22]: 0 | Blackgrass plant response rating (0 to 10 scale) ([2]; Preemergence, Rate 125 g/ha): 2 | Blackgrass plant response rating ([2]; Preemergence, Rate 250 g/ha): 6 | Blackgrass plant response rating ([2]; Preemergence, Rate 500 g/ha): 9 | Blackgrass plant response rating ([2]; Rate 62 g/ha, Postemergence): 0 | Plant response rating, B. signalgrass [3, 21]: 0 | Plant response rating, B. signalgrass [3, 20]: 0 | B. signalgrass plant response rating ([3]; Postemergence, Rate 500 g/ha): 0 | Plant response rating, B. signalgrass [3, 22]: 0 | B. signalgrass plant response rating (0 to 10 scale, 0 is no effect, 10 is complete control) ([3]; Preemergence, Rate 125 g/ha): 0 | B. signalgrass plant response rating ([3]; Preemergence, Rate 250 g/ha): 0 | B. signalgrass plant response rating ([3]; Preemergence, Rate 500 g/ha): 4 | B. signalgrass plant response rating ([3]; Rate 62 g/ha, Postemergence): 0 | Plant response rating, Cocklebur [4, 21]: 0 | Plant response rating, Cocklebur [4, 20]: 0 | Cocklebur plant response rating ([4]; Postemergence, Rate 500 g/ha): 0 | Plant response rating, Cocklebur [4, 22]: 0 | Cocklebur plant response rating (0 to 10 scale) ([4]; Preemergence, Rate 125 g/ha): 0 | Cocklebur plant response rating ([4]; Preemergence, Rate 250 g/ha): 0 | Cocklebur plant response rating ([4]; Preemergence, Rate 500 g/ha): 0 | Cocklebur plant response rating ([4]; Rate 62 g/ha, Postemergence): 0 | Plant response rating, Corn [5, 21]: 0 | Plant response rating, Corn [5, 20]: 0 | Corn plant response rating ([5]; Postemergence, Rate 500 g/ha): 0 | Plant response rating, Corn [5, 22]: 0 | Corn plant response rating (0 to 10 scale) ([5]; Preemergence, Rate 125 g/ha): 0 | Corn plant response rating ([5]; Preemergence, Rate 250 g/ha): 0 | Corn plant response rating ([5]; Preemergence, Rate 500 g/ha): 4 | Corn plant response rating ([5]; Rate 62 g/ha, Postemergence): 0 | Plant response rating, Crabgrass [6, 21]: 3 | Plant response rating, Crabgrass [6, 20]: 4 | Crabgrass plant response rating ([6]; Postemergence, Rate 500 g/ha): 7 | Plant response rating, Crabgrass [6, 22]: 1 | Crabgrass plant response rating (0 to 10 scale) ([6]; Preemergence, Rate 125 g/ha): 2 | Crabgrass plant response rating ([6]; Preemergence, Rate 250 g/ha): 9 | Crabgrass plant response rating ([6]; Preemergence, Rate 500 g/ha): 10 | Crabgrass plant response rating ([6]; Rate 62 g/ha, Postemergence): 0 | Plant response rating, Giant foxtail [7, 21]: 2 | Plant response rating, Giant foxtail [7, 20]: 7 | Giant foxtail plant response rating ([7]; Postemergence, Rate 500 g/ha): 8 | Plant response rating, Giant foxtail [7, 22]: 2 | Giant foxtail plant response rating (0 to 10 scale) ([7]; Preemergence, Rate 125 g/ha): 8 | Giant foxtail plant response rating ([7]; Preemergence, Rate 250 g/ha): 10 | Giant foxtail plant response rating ([7]; Preemergence, Rate 500 g/ha): 10 | Giant foxtail plant response rating ([7]; Rate 62 g/ha, Postemergence): 0 | Plant response rating, Morningglory [8, 20]: 8 | Morningglory plant response rating ([8]; Postemergence, Rate 500 g/ha): 10 | Plant response rating, Morningglory [8, 22]: 0 | Morningglory plant response rating (0 to 10 scale) ([8]; Preemergence, Rate 125 g/ha): 0 | Morningglory plant response rating ([8]; Preemergence, Rate 250 g/ha): 0 | Morningglory plant response rating ([8]; Preemergence, Rate 500 g/ha): 1 | Morningglory plant response rating ([8]; Rate 62 g/ha, Postemergence): 2 | Plant response rating, Redroot pigweed [9, 20]: 0 | Redroot pigweed plant response rating ([9]; Postemergence, Rate 500 g/ha): 7 | Plant response rating, Redroot pigweed [9, 22]: 0 | Redroot pigweed plant response rating (0 to 10 scale) ([9]; Preemergence, Rate 125 g/ha): 0 | Redroot pigweed plant response rating ([9]; Preemergence, Rate 250 g/ha): 4 | Redroot pigweed plant response rating ([9]; Preemergence, Rate 500 g/ha): 10 | Redroot pigweed plant response rating ([9]; Rate 62 g/ha, Postemergence): 0 | Plant response rating, Rape [10, 20]: 2 | Rape plant response rating ([10]; Postemergence, Rate 500 g/ha): 4 | Plant response rating, Rape [10, 22]: 0 | Rape plant response rating (0 to 10 scale) ([10]; Preemergence, Rate 125 g/ha): 0 | Rape plant response rating ([10]; Preemergence, Rate 250 g/ha): 0 | Rape plant response rating ([10]; Preemergence, Rate 500 g/ha): 8 | Plant response rating, Soybean [11, 20]: 2 | Soybean plant response rating ([11]; Postemergence, Rate 500 g/ha): 3 | Plant response rating, Soybean [11, 22]: 0 | Soybean plant response rating (0 to 10 scale) ([11]; Preemergence, Rate 125 g/ha): 0 | Soybean plant response rating ([11]; Preemergence, Rate 250 g/ha): 0 | Soybean plant response rating ([11]; Preemergence, Rate 500 g/ha): 3 | Soybean plant response rating ([11]; Rate 62 g/ha, Postemergence): 2 | Plant response rating, Sugarbeets [12, 20]: 0 | Sugarbeets plant response rating ([12]; Postemergence, Rate 500 g/ha): 0 | Plant response rating, Sugarbeets [12, 22]: 0 | Sugarbeets plant response rating (0 to 10 scale) ([12]; Preemergence, Rate 125 g/ha): 0 | Sugarbeets plant response rating ([12]; Preemergence, Rate 250 g/ha): 0 | Sugarbeets plant response rating ([12]; Preemergence, Rate 500 g/ha): 4 | Sugarbeets plant response rating ([12]; Rate 62 g/ha, Postemergence): 0 | Plant response rating, Velvetleaf [13, 20]: 0 | Velvetleaf plant response rating ([13]; Postemergence, Rate 500 g/ha): 0 | Plant response rating, Velvetleaf [13, 22]: 0 | Velvetleaf plant response rating (0 to 10 scale) ([13]; Preemergence, Rate 125 g/ha): 0 | Velvetleaf plant response rating ([13]; Preemergence, Rate 250 g/ha): 0 | Velvetleaf plant response rating ([13]; Preemergence, Rate 500 g/ha): 2 | Velvetleaf plant response rating ([13]; Rate 62 g/ha, Postemergence): 0 | Plant response rating, Wheat [14, 20]: 0 | Wheat plant response rating ([14]; Postemergence, Rate 500 g/ha): 0 | Plant response rating, Wheat [14, 22]: 0 | Wheat plant response rating (0 to 10 scale) ([14]; Preemergence, Rate 125 g/ha): 0 | Wheat plant response rating ([14]; Preemergence, Rate 250 g/ha): 0 | Wheat plant response rating ([14]; Preemergence, Rate 500 g/ha): 0 | Wheat plant response rating ([14]; Rate 62 g/ha, Postemergence): 0 | Plant response rating, Wild oats [15, 20]: 0 | Wild oats plant response rating ([15]; Postemergence, Rate 500 g/ha): 0 | Plant response rating, Wild oats [15, 22]: 0 | Wild oats plant response rating (0 to 10 scale) ([15]; Preemergence, Rate 125 g/ha): 0 | Wild oats plant response rating ([15]; Preemergence, Rate 250 g/ha): 1 | Wild oats plant response rating ([15]; Preemergence, Rate 500 g/ha): 4 | Wild oats plant response rating ([15]; Rate 62 g/ha, Postemergence): 0 | Plant response rating, Nutsedge [16, 20]: 0 | Nutsedge plant response rating ([16]; Postemergence, Rate 500 g/ha): 0 | Plant response rating, Nutsedge [16, 22]: 0 | Nutsedge plant response rating (0 to 10 scale) ([16]; Preemergence, Rate 125 g/ha): 0 | Nutsedge plant response rating ([16]; Preemergence, Rate 250 g/ha): 0 | Nutsedge plant response rating ([16]; Preemergence, Rate 500 g/ha): 0 | Nutsedge plant response rating ([16]; Rate 62 g/ha, Postemergence): 0 | Plant response rating, S. Flatsedge (0 to 10 scale, 0 is no effect, 10 is complete control) [17, 23]: 0 | S. Flatsedge plant response rating (0 to 10 scale, 0 is no effect, 10 is complete control) [17, 24]: 0 | S. Flatsedge plant response rating [17, 25]: 0 | S. Flatsedge plant response rating [17, 26]: 0 | Plant response rating, Ducksalad (0 to 10 scale, 0 is no effect, 10 is complete control) [18, 23]: 0 | Ducksalad plant response rating (0 to 10 scale, 0 is no effect, 10 is complete control) [18, 24]: 0 | Ducksalad plant response rating [18, 25]: 0 | Ducksalad plant response rating [18, 26]: 3 | Plant response rating, Barnyardgrass (0 to 10 scale, 0 is no effect, 10 is complete control) [19, 23]: 0 | Barnyardgrass plant response rating (0 to 10 scale, 0 is no effect, 10 is complete control) [19, 24]: 0 | Barnyardgrass plant response rating [19, 25]: 0 | Barnyardgrass plant response rating [19, 26]: 0
